# From patent publication US11959929B2, “Method of quantifying lysergic acid diethylamide (LSD) and 2,3-dihydro-3-hydroxy-2-oxo lysergide (O-H-LSD) in human plasma” (Universitatsspital Basel, priority 2020, dated 2024)
# Where “and” joins values, the source holds several entries; their conditions need not be identical. Equal values may be shown once.
# Assay: Bench-top (short-term) stability test in human plasma, 8 hours at ambient temperature
# Format: physicochemical
# Details: for Change in concentration [%]: 8 h at RT vs Baseline; for Accuracy: single QC replicate; for Change in plasma concentration after 8 hours storage at room temperature: human plasma QC samples, 8 hours at room temperature, vs freshly processed QC
# Source text: Each analyte had to be stable in human plasma for at least three freeze-thaw cycles (for repeated sample preparations) and at ambient temperature for at least eight hours (maximal duration of sample preparation). Measured samples should be stable for a second injection when the first analytical run was not valid. The analytes had to be stable in the matrix at the intended storage temperatures and study duration.
# An analyte was considered stable at one of the above tests when no increase or decrease of the analyte concentration of more than 15% for the mean of at least three analyzed QC samples at low, medium and at high concentration was observed.
# Seven of each LLOQ, QCLOW, QCMID, QCHIGH, and ULOQ samples in human plasma were thawed at ambient temperature and kept at this temperature for 8 hours. Afterwards, the samples were worked up and analyzed. The values of the concentrations in the “short-term” samples were compared with freshly processed QC samples. Concentrations were calculated based on two freshly prepared CAL sets measured at the beginning and the end of the validation run.
SMILES,"Accuracy, Intra-assay Mean (LLOQ: 10 pg/ml, 8 h at RT) [%]",Change in concentration [%] (LLOQ: 10 pg/ml),"Accuracy (LLOQ: 10 pg/ml, 8 h at RT)","Accuracy, Intra-assay Mean (LLOQ: 10 pg/ml, Baseline) [%]","Accuracy (LLOQ: 10 pg/ml, Baseline)","Accuracy, Intra-assay Mean (QCHIGH: 1000 pg/ml, 8 h at RT) [%]",Change in concentration [%] (QCHIGH: 1000 pg/ml),"Accuracy (QCHIGH: 1000 pg/ml, 8 h at RT)","Accuracy, Intra-assay Mean (QCHIGH: 1000 pg/ml, Baseline) [%]","Accuracy (QCHIGH: 1000 pg/ml, Baseline)","Accuracy, Intra-assay Mean (QCLOW: 25 pg/ml, 8 h at RT) [%]",Change in concentration [%] (QCLOW: 25 pg/ml),"Accuracy (QCLOW: 25 pg/ml, 8 h at RT)","Accuracy, Intra-assay Mean (QCLOW: 25 pg/ml, Baseline) [%]","Accuracy (QCLOW: 25 pg/ml, Baseline)","Accuracy, Intra-assay Mean (QCMID: 100 pg/ml, 8 h at RT) [%]",Change in concentration [%] (QCMID: 100 pg/ml),"Accuracy (QCMID: 100 pg/ml, 8 h at RT)","Accuracy, Intra-assay Mean (QCMID: 100 pg/ml, Baseline) [%]","Accuracy (QCMID: 100 pg/ml, Baseline)",other results
"CCN(CC)C(=O)[C@@H]1C=C2c3cccc4[nH]cc(c34)C[C@H]2N(C)C1 [LSD, Lysergic acid diethylamide]",88.3,3.81,91.6% and 85.6% and 74.7* % and 83.10% and 92% and 86.1% and 91.7%,91.8,96.6% and 95.7% and 83.2%,97.8,1.99,98.2% and 98.3% and 97.2% and 96.8% and 96.2% and 97.7% and 100%,95.9,96.9% and 96.4% and 94.3%,92.7,0.0885,96% and 92.9% and 94.5% and 87.6% and 94.4% and 93.3% and 90%,92.6,94% and 93.4% and 90.5%,96,−1.51,95.9% (2×) and 95.8% and 94.2% and 91.1% and 99.2% and 99.7%,97.5,101% and 94.3% and 97.4%,"Accuracy, Intra-assay Mean (ULOQ: 10000 pg/ml, 8 h at RT): 94.9%; Change in concentration [%] (ULOQ: 10000 pg/ml): −1.74%; Accuracy (ULOQ: 10000 pg/ml, 8 h at RT): 94.7% and 93.4% and 94.6% and 96.9% and 95.4% and 95% and 94.3%; Accuracy, Intra-assay Mean (ULOQ: 10000 pg/ml, Baseline): 96.6%; Accuracy (ULOQ: 10000 pg/ml, Baseline): 94.7% and 94.9% and 100%; Change in plasma concentration after 8 hours storage at room temperature: ≤ 3.81%"
"CCN(CC)C(=O)C1C=C2c3cccc4c3C(O)(C[C@H]2N(C)C1)C(=O)N4 (some centres unmarked) [O-H-LSD, 2,3-dihydro-3-hydroxy-2-oxo lysergide]",91.2,0.176,90.4% and 94.3% and 63.8* % and 77.5* % and 83.1% and 101% and 87.9%,91.1,95% and 88.9% and 89.4%,95.1,−1.51,96% and 100% and 91.8% and 94.6% and 93.6% and 95.8% and 93.9%,96.6,97.7% and 96.2% and 95.9%,96.4,1.1,89.2% and 93.3% and 97.6% and 102% and 103% and 97.1% and 91.9%,95.3,94.7% and 91.5% and 99.8%,95.8,0.652,97.1% and 91.5% and 95.2% and 98.3% and 94.6% and 99.6% and 94.5%,95.2,95.7% and 98.6% and 91.4%,"Found at, Intra-assay Mean (LLOQ: 10 pg/ml, 8 h at RT): 9.13 pg/mL; Found at, Intra-assay Mean (LLOQ: 10 pg/ml, Baseline): 9.11 pg/mL; Found at, Intra-assay Mean (QCHIGH: 1000 pg/ml, 8 h at RT): 951 pg/mL; Found at, Intra-assay Mean (QCHIGH: 1000 pg/ml, Baseline): 966 pg/mL; Found at, Intra-assay Mean (QCLOW: 25 pg/ml, 8 h at RT): 24.1 pg/mL; Found at, Intra-assay Mean (QCLOW: 25 pg/ml, Baseline): 23.8 pg/mL; Found at, Intra-assay Mean (QCMID: 100 pg/ml, 8 h at RT): 95.8 pg/mL; Found at, Intra-assay Mean (QCMID: 100 pg/ml, Baseline): 95.2 pg/mL; Accuracy, Intra-assay Mean (ULOQ: 10000 pg/ml, 8 h at RT): 91.1%; Found at, Intra-assay Mean (ULOQ: 10000 pg/ml, 8 h at RT): 9110 pg/mL; Change in concentration [%] (ULOQ: 10000 pg/ml): −4.52%; Accuracy (ULOQ: 10000 pg/ml, 8 h at RT): 90.2% and 93% and 90.7% and 88.2% and 93.2% and 91.5% and 91.1%; Accuracy, Intra-assay Mean (ULOQ: 10000 pg/ml, Baseline): 95.4%; Found at, Intra-assay Mean (ULOQ: 10000 pg/ml, Baseline): 9540 pg/mL; Accuracy (ULOQ: 10000 pg/ml, Baseline): 94.2% and 92.3% and 99.7%; Change in plasma concentration after 8 hours storage at room temperature: ≤ 4.52%"
